Test results from patent US10975042B2, “Method for purifying an amino acid-n-carboxy anhydride” (SHIN-ETSU CHEMICAL CO., LTD., priority 2018, dated 2021).

What was measured:
[1] = Solubility of NCA to good solvent and poor solvent, visual observation; assay type: physicochemical
Text: The method to determine that the solvent is a good solvent for NCA includes a method of adding a good solvent to NCA with stirring, followed by visual observation to confirm that the NCA has been dissolved without forming turbidity, but is not particularly limited if complete dissolution can be determined by the method.
The method to determine that the solvent is a poor solvent for NCA is not particularly limited if total insolubility can be confirmed, including a method of adding a poor solvent to NCA with stirring, followed by confirming that the NCA is not dissolved at all and turbidity is not observed by visual inspection.
On the other hand, in order to determine the solubility of NCA to n-hexane, which is a poor solvent, 0.2 g of the purified NCA shown by the structural formula (A) was tried to be dissolved in 2.0 g of n-hexane.
[…] On the other hand, as a method to determine the solubility to a poor solvent, 2.0 g of n-hexane was added to 0.2 g of each NCA after purification.

[2] = Long-term storage stability of NCA, purity by DSC; assay type: physicochemical; details: for Purity after purification / Purity after 1 month from purification / Purity after 2 months from purification / Purity after a half year from purification / Purity after 1 year from purification / Purity after 2 years from purification: DSC
Method: In Examples and Comparative Examples, the purity of each NCA was measured using differential scanning calorimeter (DSC) in accordance with 2.52 thermal analysis method of The Japanese Pharmacopoeia, 17th ed. (2.4.4. measurement of purity). The measurement was performed using Thermo plus EVO DSC8230 (manufactured by Rigalu Corporation) as a measurement apparatus with the sample amount of 1 mg at a temperature increasing rate of 1° C./minute. Incidentally, it is conceived that precise measurement cannot be guaranteed unless the purity is 98 mol % or more according to 2.52 thermal analysis method of The Japanese Pharmacopoeia, 17th ed. (2.4.4. measurement of purity).
Each purified NCA was evaluated for long-term storage stability. […] Regarding the conditions of −20±5° C., the results of purity measured by DSC at after a half year, after 1 year, and after 2 years are shown. Regarding the conditions of 0 to 5° C., the results of purity measured by DSC at after 1 month, 2 months, and a half year are shown. As a comparison, commercially available NCA shown by the general formula (A) (manufactured by Isochem), the purity of which is more than 98 mol % based on the DSC measurement, was evaluated and shown as Comparison 1. This NCA has a residual chlorine concentration of 0.030 mass % and belongs to a lot with extremely low residual chlorine concentration in commercially available NCAs.

[3] = initial value of storage test at 0 to 5° C.
[4] = initial value of storage test at −20±5° C.

Row | solubility of NCA to n-hexane (poor solvent), purified NCA ([1]; 0.2 g purified NCA in 2.0 g n-hexane) | Purity after purification [2, 3] [mol %] | Purity after purification [2, 4] [mol %] | Purity after 1 month from purification ([2]; storage at 0 to 5° C.) [mol %] | Purity after 2 months from purification ([2]; storage at 0 to 5° C.) [mol %] | Purity after a half year from purification ([2]; storage at 0 to 5° C.) [mol %] | Purity after 1 year from purification ([2]; storage at −20±5° C.) [mol %] | Purity after 2 years from purification ([2]; storage at −20±5° C.) [mol %] | Purity after a half year from purification ([2]; storage at −20±5° C.) [mol %] | long term storage stability (lowering of purity) at 0 to 5° C. ([2]; 0 to 5° C., up to a half year) | long term storage stability (lowering of purity) at −20° C. ([2]; −20° C., up to 2 years) | Structure (SMILES) | solubility of NCA to ethyl acetate (good solvent), purified NCA ([1]; 0.2 g purified NCA in 1.0 g ethyl acetate) | solubility of NCA to ethyl acetate (good solvent), NCA before purification ([1]; NCA before purification in ethyl acetate)
1 | dissolution was not determined visually | 98.93 | 98.93 | 98.93 | 98.92 | 98.90 | 98.92 | 98.90 | 98.94 |  |  | CC(C)(C)OC(=O)CCC1CC(=O)OC1=O (stereo not shown) [(A)] | undissolved impurity was not determined visually | undissolved impurities were determined visually
2 |  | 98.94 | 98.94 | 98.93 | 98.92 | 98.90 | 98.92 | 98.93 | 98.90 |  |  | CN1CC(=O)OC1=O [(K)] |  | 
3 |  | 99.05 | 99.05 | 99.07 | 99.05 | 99.07 | 99.04 | 99.05 | 99.02 |  |  | CC(C)(C)OC(=O)N1CC(=O)OC1=O [(L)] |  | 
4 |  | 99.22 | 99.22 | 99.23 | 99.22 | 99.24 | 99.23 | 99.23 | 99.23 |  |  | CC(=O)N1CC(=O)OC1=O [(M)] |  | 
5 |  | 98.88 | 98.88 | 98.88 | 98.86 | 98.86 | 98.86 | 98.85 | 98.85 |  |  | O=C1NC(Cc2ccccc2)C(=O)O1 (stereo not shown) [(N)] |  | 
6 |  | 98.80 | 98.80 | 98.77 | 98.75 | 98.73 | 98.79 | 98.79 | 98.77 |  |  | CC(C)C1NC(=O)OC1=O (stereo not shown) [(O)] |  | 
7 |  | 98.91 | 98.91 | 98.93 | 98.94 | 98.94 | 98.90 | 98.91 | 98.92 |  |  | CC(C)CC1NC(=O)OC1=O (stereo not shown) [(P)] |  | 
8 |  | 99.32 | 99.32 | 99.31 | 99.31 | 99.32 | 99.33 | 99.33 | 99.33 |  |  | O=C1CCNC(=O)O1 [(Q)] |  | 
9 |  | 99.03 | 99.03 | 99.05 | 99.04 | 99.03 | 99.06 | 99.05 | 99.07 |  |  | O=C1CCCNC(=O)O1 [(R)] |  | 
10 |  | 98.14 | 98.14 | <98 | <98 | <98 | 98.02 | <98 | 98.06 | lowered in 1 month | the purity was lowered in 2 years | CC(C)(C)OC(=O)CCC1CC(=O)OC1=O (stereo not shown) [Comparison 1, reference compound] |  | 
